Consider two compounds from patent US9670217B2, “Process for preparing chlorins and their pharmaceutical uses” (UNIVERSIDADE DE COIMBRA, priority 2008, dated 2017).

Common to all, as to type: cell-based
One series deals with S91/I3 (mouse melanoma). Description: Cytotoxicity in the dark, resazurin assay. The following applies: S91I3, incubation 40 h in the dark; read-out: IC50 dark toxicity. On the procedure:
(§1) The cell lines employed in laser irradiation were the HT-29 (human colon carcinoma), PC-3 (human prostate carcinoma), SW2 (human small cell lung cancer), A-549 (human non-small cell lung cancer). S91/I3 (mouse melanoma) and CT26 (mouse colon carcinoma). They were used both for cytotoxicity and photocytotoxicity experiments. PC-3. SW2 and S91113 cells were cultured in RPMI-1640 medium (Sigma-Aldrich, Steinheim, Germany) and HT-29, A-549 and CT26 cells were cultured in Dulbecco's Modified Eagle Medium (DMEM) (Cambrex Bioscience, Verviers, Belgium). Both cell culture mediums were supplemented with 10% heat-inactivated Fetal Bovine Serum (FBS) (Cambrex Bioscience, Verviers, Belgium) and 100 IU/ml penicillin-100 μg/ml streptomycin (Cambrex Bioscience, Verviers, Belgium). The DMEM medium used for CT26 cells was also supplemented with HEPES 10 mM. Cell lines were maintained in 75 cm^2 flasks (Orange Scientific, Braine-l'Alleud, Belgium) at 37° C. in humidified atmosphere with 5% CO2. For the in vitro studies, cells at 85-90% confluence, were detached with Trypsin-Versene-EDTA solution (Cambrex Bioscience, Verviers, Belgium), counted and seeded in flat-bottom 96-well plates at the desired densities.
(§2) Cell viability assay. In the end of the experiences cell viability was evaluated by the resazurin reduction assay. Briefly, resazurin (Sigma-Aldrich, Steinhelm, Germany) stock solution (0.1 mg/ml in phosphate buffer saline (PBS) pH 7.4) was diluted 10% in culture medium without FBS or antibiotics and 200 μl were added to the cells in each well. Plates were incubated for 3-4 h at 37° C. The absorbance values of each well were measured at 540 nm and 630 nm using a microplate reader Multiskan Ex (Thermo-Electron Corporation, Vartaa, Finland).
(§3) Cytotoxicity. Cells were seeded in flat-bottom 96-well plates (Orange Scientific, Braine-l'Alleud, Belgium) in 100 μl of culture medium and were allowed to adhere overnight. The photosensitizer was added to the cells (diluted in 100 μl culture medium) at final concentrations between 0.01 and 1 mM. Each concentration was tested in quadruplicate. The incubation periods in the dark at 37° C. were two times the doubling time for the tested cell line. After the incubation the cell viability was evaluated. In parallel control experiments, cells were incubated without the drug. Cytotoxicity was quantified by expressing cell death relatively to untreated cells (% of control cells). The results were plotted as dose response curves (% of cell death as a function of the concentration of the DRUG), which allow the determination of the concentration that inhibit 50% of cell growth (IC50).

The subject of series [1] is SW2 (human small cell lung cancer). Description: Cytotoxicity in the dark, resazurin assay. Conditions: SW2, incubation 48 h in the dark; read-out: IC50 dark toxicity. On the procedure: as §1, §2, §3
For series [2], the system named is SKMEL 188 (human melanoma). Description: Cell photosensitization, filtered halogen lamp, MTT. Conditions: [Luzitin-Cl] = 20 μM. On the procedure: Irradiation in in vitro experiments was performed using either a halogen lamp or a laser source. In the first case, a 500 W halogen lamp was placed 50 cm from the irradiated plate to insure a homogeneous irradiation. A cooled water filter (d=35 mm) and a 600 nm cut off filter were placed between the lamp and samples. The fluence rate reaching samples was 3 mW/cm^2. The emission spectrum of the halogen lamp was recorded using a spectroradiometer IL2000 (Spectrocube), FIG. 1. In the second case, three Lynx external cavity diode lasers TEC 500 powered by PilotPC 500 Laser Controllers (Sacher Lasertechnik, Marburg, Germany) were employed. The laser energies were stable at 40 mW for the 748 nm laser, 10 mW for the 649 laser and 10 mW for the 633 laser. The laser energies were regularly measured with a Coherent LaserCheck. In some in vitro experiments, the laser light was focused on an optical fiber through a collimator in microbench, and delivered to the cells. This system reduced the 748 nm laser light to 30 mW.
The cell lines employed in halogen lamp irradiation were the MCF7 (human breast carcinoma), SKMEL 188 (human melanoma) and S91/I3 (mouse melanoma) cells. They were used both for cytotoxicity and photocytotoxicity experiments. MCF7 cells were grown supplemented with 10% fetal calf (FBS) serum, 25 units/ml of penicillin, and 25 μg/ml of streptomycin. Human melanoma cells SKMEL-188 were grown in F10 medium supplemented with 10% fetal calf serum (FCS), 100 units/ml of penicillin, and 100 μg/ml of streptomycin. I3 subline of Cloudman S91 melanoma cells were cultured in RPMI 1640 medium supplemented with 100 units/ml of penicillin, 100 μg/ml streptomycin and 5% fetal calf serum (FCS) (Gibco BRL). […]
Cytotoxicity. Cell metabolic efficiency and viability were determined by the uptake and reduction of 3-(4,5-dimethylthiazol-2-yl)-2,5-diphenyl tetrazolium bromide (MTT) to an insoluble formazan dye by cellular microsomal enzymes. […] The 96-well culture plate was shaken for 0.5 min at room temperature and immediately read for optical density at 560 nm using an ELISA reader (GENios Plus; Tecan Trading AG, Switzerland). The cell survival was expressed by the absorbance changes of the formazan salt, and survival rate was given as the percent ratio of viable treated cells vs. the number of viable untreated cells. Number of cells was determined from linear regression of a calibration curve.
Cell photosensitization. […] The values were obtained from three independent experiments and expressed as percent of cell survival with reference to control cells, which were manipulated in the same manner but without incubation with photosensitizer and without illumination.

The subject of series [3] is HT-29 (human colon carcinoma). Description: Cytotoxicity in the dark, resazurin assay. Conditions: HT-29, dark. The method, then: as §1, §2, §3

By IC50 is commonly meant the point on the concentration scale where inhibition reaches its midpoint. As to `O=S(=O)(O)c1ccc(Cl)c(-c2c3nc(c(-c4cc(S(=O)(=O)O)ccc4Cl)c4ccc([nH]4)c(-c4cc(S(=O)(=O)O)ccc4Cl)c4nc(c(-c5cc(S(=O)(=O)O)ccc5Cl)c5ccc2[nH]5)CC4)CC3)c1` [Luzitin-Cl, 5,10,15,20-tetrakis(2-chloro-5-sulfonylphenyl)bacteriochlorin], the IC50 in the series with S91/I3 (mouse melanoma) stood at 500 µM. Moreover, the IC50 in series [1] is 400 µM. Further, in series [2], the “LD50 (light dose to kill 50% of the cells)” value worked out at 0.1 J/cm^2 and the “LD90 (light dose to kill 90% of the cells)” value is listed as 0.32 J/cm^2.
As to `CNS(=O)(=O)c1ccc(F)c(-c2c3nc(c(-c4cc(S(=O)(=O)NC)ccc4F)c4ccc([nH]4)c(-c4cc(S(=O)(=O)NC)ccc4F)c4nc(c(-c5cc(S(=O)(=O)NC)ccc5F)c5ccc2[nH]5)CC4)CC3)c1` [Luzitin-FMet, 5,10,15,20-tetrakis(2-fluoro-5-N-methylsulfamoylphenyl)bacteriochlorin], in series [3], the “highest concentration that causes relatively no effect in viability in the dark” value is 50 µM.
